Measurements from ChEMBL document CHEMBL1150517, “The structural feature of S1 subsite of carboxypeptidase A” (Bioorg Med Chem Lett, 1991).

target: T1, Carboxypeptidase A1 (Bos taurus, UniProt P00730); experiment: Binding affinity against carboxypeptidase A using hippurylphenylalanine as substrate
T1 sequence (P00730 whole entry): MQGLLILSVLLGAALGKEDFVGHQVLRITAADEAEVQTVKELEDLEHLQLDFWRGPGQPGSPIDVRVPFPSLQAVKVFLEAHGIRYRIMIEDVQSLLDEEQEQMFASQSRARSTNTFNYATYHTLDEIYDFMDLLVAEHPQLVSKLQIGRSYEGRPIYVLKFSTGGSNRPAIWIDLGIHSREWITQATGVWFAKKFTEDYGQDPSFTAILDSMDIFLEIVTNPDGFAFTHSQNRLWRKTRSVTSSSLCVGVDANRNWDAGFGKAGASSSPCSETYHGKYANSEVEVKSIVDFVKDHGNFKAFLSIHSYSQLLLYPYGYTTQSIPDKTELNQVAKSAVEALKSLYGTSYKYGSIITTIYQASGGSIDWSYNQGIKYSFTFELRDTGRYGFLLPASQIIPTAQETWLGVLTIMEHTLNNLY

| Ki [µM] | Compound |
| --- | --- |
| 0.2 | O=C(O)C(CS)Cc1ccc2ccccc2c1 (configuration not stated) |
| 0.035 | O=C(O)C(CS)Cc1cccc(F)c1 (configuration not stated) |
| 0.492 | Cc1ccc(CC(CS)C(=O)O)cc1C (configuration not stated) |
| 0.011 | O=C(O)C(CS)Cc1ccccc1 (configuration not stated) |
| 0.35 | Cc1cccc(CC(CS)C(=O)O)c1C (configuration not stated) |
| 4.5 | CC(C)c1ccc(CC(CS)C(=O)O)cc1 (configuration not stated) |
| 0.037 | O=C(O)C(CS)Cc1ccc(F)cc1 (configuration not stated) |
| 7.7 | CC(C)(C)c1ccc(CC(CS)C(=O)O)cc1 (configuration not stated) |
| 0.112 | Cc1ccc(CC(CS)C(=O)O)cc1 (configuration not stated) |
| 2.3 | O=C(O)C(CS)Cc1c(F)c(F)c(F)c(F)c1F (configuration not stated) |
| 0.045 | O=C(O)C(CS)Cc1ccccc1F (configuration not stated) |
| 0.12 | Cc1ccccc1CC(CS)C(=O)O (configuration not stated) |
| 0.17 | Cc1cccc(CC(CS)C(=O)O)c1 (configuration not stated) |
| 2.35 | O=C(O)C(CS)CC1CCCCC1 (configuration not stated) |
| 0.48 | O=C(O)C(CS)Cc1cccc2ccccc12 (configuration not stated) |
| 0.59 | O=C(O)C(CS)Cc1cc(F)c(F)c(F)c1 (configuration not stated) |
| 0.25 | O=C(O)C(CS)Cc1ccc(F)c(F)c1 (configuration not stated) |
